Data published in patent US9365489B2, “Nitrooxy alkanoic acids and derivatives thereof in feed for reducing methane emission in ruminants, and/or to improve ruminant performance” (priority 2009, dated 2016).
Marks after values point to notes of the source that are not given here.

Key:
methanogenic archaea = assay: In vivo test: qPCR of methanogenic archaea in rumen contents; conditions: rumen of sheep; for Methanogenic archaea, log10: control 3.59; for Methanogenic archaea concentration: control 5.60 × 10^3
Source text: (§1) The experimental design consisted of a cross-over design with 2 sheep per treatment in each period. The trial consisted in 3 consecutive periods of: 14 days of adaptation to the dose plus three consecutive days of methane measurements in chambers. This 14 days adaptation phase was established as the period necessary for wash out between different doses assayed in consecutive periods. During the last two days of methane measurements in chambers rumen contents samples were collected two hours after the morning feeding, sub sampled and immediately frozen prior DNA extraction and determination of volatile fatty acids and ammonia nitrogen concentration. Experimental animals were randomly allocated in three sub-groups of 2 animals and were assigned one of the three treatments (control, dose 1 and dose 2). The 3 sub-groups started the adaptation period with a gap of three days so they had the same number of adaptation days prior to methane measurement in the chambers. Each animal was held in cages with constant access to fresh water. The diet provided to the animals consisted of alfalfa hay chopped at 15 to 20 cm and concentrate in a proportion 1:1 at approximately 1.1 times the energy requirements maintenance level (Prieto et al, 1990) plus mineral-vitamin supplement. Fresh matter intake was monitored daily for each animal throughout the trial. The diet was provided to animals in two equal meals at 9.00 h and 14.00 h.
(§2) Samples of rumen contents were freeze-dried and thoroughly mixed by physical disruption using a bead beater (Mini-bead Beater; BioSpec Products, Bartlesville, Okla., USA) before DNA extraction, which was performed from approximately 50 mg sample using the QIAamp® DNA Stool Mini Kit (Qiagen Ltd, West Sussex, UK) following the manufacturer's instructions with the modification that a higher temperature (95° C.) was used for lysis incubation. DNA samples were used as templates for quantitative real-time PCR (qPCR) amplification. The numbers of total bacteria, total protozoa and total methanogenic archaea were quantified by Real Time—PCR (qPCR).
(§3) Different primer sets were used to amplify 16S rRNA gene-targeted total bacteria (Maeda et al. FEMS Inmunology and Medical Microbiology 39, 81-86, 2003), and protozoa (Sylvester et al. Journal Dairy Science. 88, 2083-2095 2005). […] The amplification efficiency was evaluated for each pair of primers with the following program: 5 min cycle at 95° C., 40 cycles at 95° C. for 15 s, 60° C. for 30 s, 72° C. for 55 s and, 75° C. during 6 s for fluorescent emission measures. The melting curve was built by increasing temperature from 55° C. to 95° C. and reading were taken every 5° C. […] The absolute amount of bacteria, protozoa and methanogenic archaea expressed as the number of DNA copies, was determined by using standards. […]

protozoa (18SrRNA) = assay: In vivo test: qPCR of total protozoa in rumen contents; conditions: rumen of sheep; for Total protozoa concentration: control 2.38 × 10^6; for Total protozoa, log10: control 6.35
Source text: as §1, §2, §3

[1] = test system: methane emissions by sheep; assay: In vivo test for methane inhibition: methane emissions in chambers; conditions: for CH4, l/kg BW / CH4, l/day / CH4, l/kg DMI: average of 3 consecutive days; for CH4, l/kg BW: control 0.59; for CH4, l/day: control 25.5; for CH4, l/kg DMI: control 31.5; for reduction of methane emissions: vs control
Source text: as §1
The additive was provided twice a day through the ruminal cannula at the same time as the diet. The corresponding amount to each dose was added into 10 grams of grounded concentrate and wrapped in cellulose paper immediately before it was placed in the rumen. In order to avoid the volatility of the active molecule, both additives were kept in a cold room at 4° C. where the daily process of dispensing it in the cellulose bags was carried out.
The doses were 50 (dose 1) and 500 (dose 2) mg/animal per day. The higher dose was reached after 3 days of gradual increases (50, 200 and 500 mg), so the whole adaptation period was consequently extended for 3 more days.
On day 14 animals were introduced in the chambers for methane measurements for 3 consecutive days. Each chamber measured 1.8 m wide×1.8 m deep×1.5 m tall. Chamber air temperature was maintained between 15 and 20° C. Within each chamber, the animals were individually restrained in the same cages as in the adaptation period. Interruptions occurred daily at 8.30 h, when the chamber floor was cleaned, and the animals were fed. These interruptions had little impact on the daily emissions because fluxes were calculated three times per day and then averaged to derive the 23-hour emission value. Airflow and concentration of methane was measured for the intake and exhaust ducts of each chamber. Air velocity was continuously monitored over the day in each intake and exhaust duct for each chamber. The air stream in each of the 3 ducts (chamber 1, chamber 2 and background) was sub-sampled, and methane concentration was measured continuously using a gas analyzer ADM MGA3000 (Spurling works, Herts, UK). It took 8 min. to sequentially sample the airflow in all intake and exhaust ducts in both chambers (3 min. in chambers 1 and 2, 2 min for background). In summary, the flux of methane for each chamber was calculated for each of the 3-day periods of measurement from the difference of fresh-air input and chamber exhaust methane concentrations and mean air velocities.
Individual methane emissions, VFA profiles, ratio of acetate to propionate, ammonia N concentration, and log10 transformations of concentration of total bacteria, total protozoa and methanogenic archaea were analyzed for the following effects: additive dose, day of measurement, and their interaction using a repeated measures analysis of variance under the cross-over design arrangement of the experiment. The standard error of the mean (SEM) was computed for each analysis. […]

total bacteria (16SrRNA) = assay: In vivo test: qPCR of total bacteria in rumen contents; conditions: rumen of sheep; for Total bacteria concentration: control 1.19 × 10^9; for Total bacteria, log10: control 9.03
Source text: as §1, §2, §3

Structure (SMILES): CCOC(=O)CCO[N+](=O)[O-] [Ethyl-3-nitrooxy propionate]
- Methanogenic archaea, log10 (methanogenic archaea; Dose 1 (50 mg/animal per day)): 3.57 log10
- Methanogenic archaea concentration (methanogenic archaea; Dose 1 (50 mg/animal per day)): 5.43 × 10^3 copy gene numbers/g fresh matter
- Methanogenic archaea, log10 (methanogenic archaea; Dose 2 (500 mg/animal per day)): 3.45 log10
- Methanogenic archaea concentration (methanogenic archaea; Dose 2 (500 mg/animal per day)): 4.34 × 10^3 copy gene numbers/g fresh matter
- Total protozoa concentration (protozoa (18SrRNA); Dose 1 (50 mg/animal per day)): 2.08 × 10^6 copy gene numbers/g fresh matter
- Total protozoa, log10 (protozoa (18SrRNA); Dose 1 (50 mg/animal per day)): 6.28 log10
- Total protozoa concentration (protozoa (18SrRNA); Dose 2 (500 mg/animal per day)): 2.77 × 10^6 copy gene numbers/g fresh matter
- Total protozoa, log10 (protozoa (18SrRNA); Dose 2 (500 mg/animal per day)): 6.43 log10
- CH4, l/kg BW ([1]; Dose 1 (50 mg/animal per day)): 0.51^ab l/kg BW
- CH4, l/day ([1]; Dose 1 (50 mg/animal per day)): 22.3^ab l/day
- CH4, l/kg DMI ([1]; Dose 1 (50 mg/animal per day)): 26.0^ab l/kg DMI
- CH4, l/kg BW ([1]; Dose 2 (500 mg/animal per day)): 0.42^b l/kg BW
- CH4, l/day ([1]; Dose 2 (500 mg/animal per day)): 18^b l/day
- CH4, l/kg DMI ([1]; Dose 2 (500 mg/animal per day)): 22.2^b l/kg DMI
- reduction of methane emissions ([1]; dose 1 (50 mg/animal per day)): 18%
- reduction of methane emissions ([1]; dose 2 (500 mg/animal per day), P<0.05): 29%
- inhibition of methanogenesis (conclusion in words) ([1]; sheep, 50 and 500 mg/animal per day): strong inhibitor of methanogenesis
- Total bacteria concentration (total bacteria (16SrRNA); Dose 1 (50 mg/animal per day)): 1.43 × 10^9 copy gene numbers/g fresh matter
- Total bacteria, log10 (total bacteria (16SrRNA); Dose 1 (50 mg/animal per day)): 9.08 log10
- Total bacteria concentration (total bacteria (16SrRNA); Dose 2 (500 mg/animal per day)): 1.63 × 10^9 copy gene numbers/g fresh matter
- Total bacteria, log10 (total bacteria (16SrRNA); Dose 2 (500 mg/animal per day)): 9.18 log10
